# Test results published in US20230049231A1 (priority 2019, published 2023).
# pIC50: −log10 of the molar value.
# Experiments:
# [1] = molecular target: T1, Kv1.3 potassium channel (Homo sapiens, UniProt P22001); test: Kv1.3 potassium channel blocker activity, automated whole-cell patch clamp (Patchliner); type: cell-based
# T1 construct: expressed in transfected cells
# Description: This assay is used to evaluate the disclosed compounds' activities as Kv1.3 potassium channel blockers.
# CHO-K1 cells stably expressing Kv1.3 were grown in DMEM containing 10% heat-inactivated FBS, 1 mM sodium pyruvate, 2 mM L-glutamine and G418 (500 μg/ml). Cells were grown in culture flasks at 37° C. in a 5% CO2-humidified incubator.
# (§1) The cells were bathed in an extracellular solution containing 140 mM NaCl, 4 mM KCl, 2 mM CaCl2), 1 mM MgCl2, 5 mM glucose, and 10 mM HEPES; pH adjusted to 7.4 with NaOH; 295-305 mOsm. The internal solution contained 50 mM KCl, 10 mM NaCl, 60 mM KF, 20 mM EGTA, and 10 mM HEPES; pH adjusted to 7.2 with KOH; 285 mOsm. All compounds were dissolved in DMSO at 30 mM. Compound stock solutions were freshly diluted with external solution to concentrations of 30 nM, 100 nM, 300 nM, 1 μM, 3 μM, 10 μM, 30 μM and 100 μM. The highest content of DMSO (0.3%) was present in 100 μM.
# The currents were evoked by applying 100 ms depolarizing pulses from −90 mV (holding potential) to +40 mV were applied with 0.1 Hz frequency. Control (compound-free) and compound pulse trains for each compound concentration applied contained 20 pulses.
# 10-second breaks were used between pulse trains (see Table 2 below).
# Whole-cell current recordings and compound application were enabled by means of an automated patch clamp platform Patchliner (Nanion Technologies GmbH). EPC 10 patch clamp amplifier (HEKA Elektronik Dr. Schulze GmbH) along with Patchmaster software (HEKA Elektronik Dr. Schulze GmbH) was used for data acquisition. Data were sampled at 10 kHz without filtering. Passive leak currents were subtracted online using a P/4 procedure (HEKA Elektronik Dr. Schulze GmbH). Increasing compound concentrations were applied consecutively to the same cell without washouts in between. Total compound incubation time before the next pulse train was not longer than 10 seconds. Peak current inhibition was observed during compound equilibration.
# (§2) AUC and peak values were obtained with Patchmaster (HEKA Elektronik Dr. Schulze GmbH). To determine IC50, the last single pulse in the pulse train corresponding to a given compound concentration was used. Obtained AUC and peak values in the presence of compound were normalized to control values in the absence of compound. Using Origin (OridinLab), IC50 was derived from data fit to Hill equation: Icompound/Icontrol=(100−A)/(1+([compound]/IC50)nH)+A, where IC50 value is the concentration at which current inhibition is half-maximal, [compound] is the applied compound concentration, A is the fraction of current that is not blocked and nH is the Hill coefficient.
# [2] = molecular target: T2, hERG channel (Homo sapiens, UniProt Q12809); test: hERG electrophysiology, automated whole-cell patch clamp (Patchliner); type: cell-based
# T2 construct: expressed in transfected cells
# Description: This assay is used to evaluate the disclosed compounds' inhibition activities against the hERG channel.
# CHO-K1 cells stably expressing hERG were grown in Ham's F-12 Medium with glutamine containing 10% heat-inactivated FBS, 1% penicillin/streptomycin, hygromycin (100 μg/ml) and G418 (100 μg/ml). Cells were grown in culture flasks at 37° C. in a 5% CO2-humidified incubator.
# as §1
# The voltage protocol (see Table 3) was designed to simulate voltage changes during a cardiac action potential with a 300 ms depolarization to +20 mV (analogous to the plateau phase of the cardiac action potential), a repolarization for 300 ms to −50 mV (inducing a tail current) and a final step to the holding potential of −80 mV. The pulse frequency was 0.3 Hz. Control (compound-free) and compound pulse trains for each compound concentration applied contained 70 pulses.
# Whole-cell current recordings and compound application were enabled by means of an automated patch clamp platform Patchliner (Nanion). EPC 10 patch clamp amplifier (HEKA) along with Patchmaster software (HEKA Elektronik Dr. Schulze GmbH) was used for data acquisition. Data were sampled at 10 kHz without filtering. Increasing compound concentrations were applied consecutively to the same cell without washouts in between.
# as §2, with “PEAK” for “peak”, “IC50” for “IC50,”, “Icompound/Icontrol=(100-A)/(1+([compound]/IC50)nH)+A,” for “Icompound/Icontrol=(100−A)/(1+([compound]/IC50)nH)+A,”, “IC50” for “IC50 value”
# [3] = CHO-K1 cells stably expressing Kv1.3, 100 ms pulses from -90 mV to +40 mV, 0.1 Hz
# [4] = CHO-K1 cells stably expressing hERG, +20 mV 300 ms, -50 mV 300 ms tail current, 0.3 Hz
# [5] = Kv1.3 potassium channel, whole-cell patch clamp
# [6] = hERG channel, whole-cell patch clamp
# T2 sequence (Q12809 whole entry): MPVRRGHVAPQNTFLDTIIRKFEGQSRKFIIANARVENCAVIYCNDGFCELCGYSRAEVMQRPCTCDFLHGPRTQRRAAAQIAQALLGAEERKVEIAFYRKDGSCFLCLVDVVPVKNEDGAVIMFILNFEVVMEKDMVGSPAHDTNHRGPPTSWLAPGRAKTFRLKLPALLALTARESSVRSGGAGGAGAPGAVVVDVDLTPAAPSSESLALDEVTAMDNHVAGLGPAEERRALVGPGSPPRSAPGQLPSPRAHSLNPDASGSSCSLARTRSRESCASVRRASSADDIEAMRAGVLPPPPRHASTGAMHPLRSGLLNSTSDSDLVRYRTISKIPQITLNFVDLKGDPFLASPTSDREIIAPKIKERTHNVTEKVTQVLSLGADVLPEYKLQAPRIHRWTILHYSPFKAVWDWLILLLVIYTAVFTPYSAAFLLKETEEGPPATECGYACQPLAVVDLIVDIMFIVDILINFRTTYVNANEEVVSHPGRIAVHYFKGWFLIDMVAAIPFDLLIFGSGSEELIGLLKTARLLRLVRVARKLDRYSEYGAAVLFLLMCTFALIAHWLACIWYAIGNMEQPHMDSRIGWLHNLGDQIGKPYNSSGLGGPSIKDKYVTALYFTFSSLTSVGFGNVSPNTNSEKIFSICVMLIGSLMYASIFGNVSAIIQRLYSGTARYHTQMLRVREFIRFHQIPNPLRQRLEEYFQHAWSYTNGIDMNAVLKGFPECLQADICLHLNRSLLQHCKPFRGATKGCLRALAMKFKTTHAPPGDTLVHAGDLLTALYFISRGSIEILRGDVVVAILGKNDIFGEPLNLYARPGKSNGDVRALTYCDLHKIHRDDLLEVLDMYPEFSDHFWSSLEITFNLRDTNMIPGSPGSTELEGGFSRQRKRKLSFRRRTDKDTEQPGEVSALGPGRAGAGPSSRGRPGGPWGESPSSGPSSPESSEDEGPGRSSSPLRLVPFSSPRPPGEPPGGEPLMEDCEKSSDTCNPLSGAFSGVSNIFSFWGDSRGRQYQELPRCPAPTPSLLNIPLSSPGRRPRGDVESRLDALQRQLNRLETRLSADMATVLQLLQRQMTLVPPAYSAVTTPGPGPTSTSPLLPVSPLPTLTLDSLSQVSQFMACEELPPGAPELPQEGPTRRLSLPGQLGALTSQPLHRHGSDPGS
# T1 sequence (P22001 whole entry): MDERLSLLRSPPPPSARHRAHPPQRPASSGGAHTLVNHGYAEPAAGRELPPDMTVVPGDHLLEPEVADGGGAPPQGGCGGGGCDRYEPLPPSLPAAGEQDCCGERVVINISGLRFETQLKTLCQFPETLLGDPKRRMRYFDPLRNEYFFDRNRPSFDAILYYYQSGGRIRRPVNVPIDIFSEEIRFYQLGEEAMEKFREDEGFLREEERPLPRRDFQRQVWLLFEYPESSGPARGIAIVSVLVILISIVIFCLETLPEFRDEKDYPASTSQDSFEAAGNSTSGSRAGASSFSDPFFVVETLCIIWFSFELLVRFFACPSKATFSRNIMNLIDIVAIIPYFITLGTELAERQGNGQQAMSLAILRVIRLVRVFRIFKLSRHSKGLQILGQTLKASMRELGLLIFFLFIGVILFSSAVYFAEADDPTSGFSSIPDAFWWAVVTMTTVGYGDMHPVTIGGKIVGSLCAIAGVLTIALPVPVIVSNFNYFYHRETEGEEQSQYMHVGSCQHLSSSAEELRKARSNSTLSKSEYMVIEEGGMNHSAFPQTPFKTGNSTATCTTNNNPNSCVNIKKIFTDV
Compound,"pIC50 [1, 5]",further results
"O=C([C@H](O)CO)N1CC(=O)N2CC[C@H](c3c(O)ccc(Cl)c3Cl)C[C@@H]2C1 (relative stereo) [Compound 10, (8S,9aR)-rel-8-(2,3-dichloro-6-hydroxyphenyl)-2-[(2R)-2,3-dihydroxypropanoyl]-hexahydro-1H-pyrido[1,2-a]pyrazin-4-one]",,"pIC50 [1, 3]: > 6.00; pIC50 [2, 4]: < 4.52"
"O=C1[C@@H](CO)NC[C@@H]2C[C@H](c3c(O)ccc(Cl)c3Cl)CCN12 (relative stereo) [Compound 28, (8R,9aS)-rel-8-(2,3-dichloro-6-hydroxyphenyl)-3-((3R)-hydroxymethyl-octahydropyrido[1,2-a]pyrazin-4-one trifluoroacetic acid]",,"pIC50 [1, 3]: > 6.00; pIC50 [2, 4]: < 4.52"
"O=C(C1CNC1)N1CC(=O)N2CC[C@@H](c3c(O)ccc(Cl)c3Cl)C[C@H]2C1 (relative stereo) [Compound 32, (8S,9aR)-rel-2-(azetidine-3-carbonyl)-8-(2,3-dichloro-6-hydroxyphenyl)-hexahydro-1H-pyrido[1,2-a]pyrazin-4-one]",,"pIC50 [1, 3]: > 6.00; pIC50 [2, 4]: < 4.52"
"O=C1CN([C@H]2C[C@H](O)C2)C[C@@H]2C[C@H](c3c(O)ccc(Cl)c3Cl)CN12 (relative stereo) [Compound 125, (7R,8aS)-7-(2,3-dichloro-6-hydroxyphenyl)-2-[(1r,3S)-rel-3-hydroxycyclobutyl] hexahydropyrrolo [1,2-a]pyrazin-4-one]",> 6.00,"pIC50 [2, 6]: < 4.52"
"O=C1CN([C@H]2C[C@@H](O)C2)C[C@@H]2C[C@H](c3c(O)ccc(Cl)c3Cl)CN12 (relative stereo) [Compound 126, (7R,8aS)-7-(2,3-dichloro-6-hydroxyphenyl)-2-[(1s,3R)-rel-3-hydroxycyclobutyl] hexahydropyrrolo [1,2-a]pyrazin-4-one]",> 6.00,"pIC50 [2, 6]: < 4.52"
"O=C1CN([C@H]2C[C@@H](O)[C@@H](O)C2)C[C@@H]2C[C@H](c3c(O)ccc(Cl)c3Cl)CN12 (relative stereo) [Compound 130, (7R,8aS)-7-(2,3-dichloro-6-hydroxyphenyl)-2-[(1R,3R,4S)-rel-3,4-dihydroxycyclopentyl]-hexahydropyrrolo [1,2-a]pyrazin-4-one]",> 6.00,"pIC50 [2, 6]: < 4.52"
"O=C1CN([C@@H]2C[C@@H](O)[C@@H](O)C2)C[C@@H]2C[C@H](c3c(O)ccc(Cl)c3Cl)CN12 (relative stereo) [Compound 131, (7R,8aS)-7-(2,3-dichloro-6-hydroxyphenyl)-2-[(1S,3R,4S)-rel-3,4-dihydroxycyclopentyl]-hexahydropyrrolo [1,2-a]pyrazin-4-one]",> 6.00,"pIC50 [2, 6]: < 4.52"
"O=C(CO)N1CC[C@@H]2C[C@H](c3c(O)ccc(Cl)c3Cl)CN2C(=O)C1 [Compound 90, (8R,9aS)-8-(2,3-dichloro-6-hydroxyphenyl)-3-(2-hydroxyacetyl)-hexahydro-1H-pyrrolo[1,2-d][1,4]diazepin-5-one]",> 6.00,
"CCN(CC)C(=O)N1CC(=O)N2C[C@@H](c3c(O)ccc(Cl)c3Cl)C[C@H]2C1 [Compound 99, (7R,8aS)-7-(2,3-dichloro-6-hydroxyphenyl)-N,N-diethyl-4-oxo-hexahydropyrro[1,2-a]pyrazine-2-carboxamide]",> 6.00,
"O=C1NCCC1N1CC(=O)N2C[C@@H](c3c(O)ccc(Cl)c3Cl)C[C@H]2C1 (stereo partly drawn) [Compound 109, 3-[(7R,8aS)-7-(2,3-dichloro-6-hydroxyphenyl)-4-oxo-hexahydropyrrolo [1,2-a]pyrazin-2-yl]pyrrolidin-2-one]",> 6.00,
"C=CCN1CC(=O)N2C[C@@H](c3c(O)ccc(Cl)c3Cl)C[C@H]2C1 [Compound 113, (7R,8aS)-7-(2,3-dichloro-6-hydroxyphenyl)-2-(prop-2-en-1-yl)-hexahydropyrrolo [l,2-a]pyrazin-4-one]",> 6.00,
"O=C1CN(c2ccc(CO)cn2)C[C@@H]2C[C@H](c3c(O)ccc(Cl)c3Cl)CN12 [Compound 168, (7R,8aS)-7-(2,3-dichloro-6-hydroxyphenyl)-2-[5-(hydroxymethyl)pyridin-2-yl]-hexahydropyrrolo[1,2-a]pyrazin-4-one]",> 6.00,
"Nc1cnc(N2CC(=O)N3C[C@@H](c4c(O)ccc(Cl)c4Cl)C[C@H]3C2)nc1 [Compound 170, (7R,8aS)-2-(5-aminopyrimidin-2-yl)-7-(2,3-dichloro-6-hydroxyphenyl)-hexahydropyrrolo[1,2-a]pyrazin-4-one]",> 6.00,
O=C1CN(c2ncccc2CO)C[C@@H]2C[C@H](c3c(O)ccc(Cl)c3Cl)CN12 [Compound 174],> 5.00,
"O=C1CCCN1CC1OC[C@@H]2C[C@H](c3c(O)ccc(Cl)c3Cl)CCN2C1=O (stereo partly drawn) [Compound 184, 1-[[(8R,9aS)-8-(2,3-dichloro-6-hydroxyphenyl)-4-oxo-hexahydro-1H-pyrido[2,1-c][1,4]oxazin-3-yl]methyl]pyrrolidin-2-one]",> 5.00,

# More lines, main results first:
"pIC50 [1, 5]",Compound,further results
> 6.00,"CC(=O)NCC1OC[C@@H]2C[C@H](c3c(O)ccc(Cl)c3Cl)CCN2C1=O (stereo partly drawn) [Compound 186, N-[[(8R,9aS)-8-(2,3-dichloro-6-hydroxyphenyl)-4-oxo-hexahydro-1H-pyrido[2,1-c][1,4]oxazin-3-yl]methyl]acetamide]",
> 6.00,"O=C(O)C1CC(=O)N2C[C@@H](c3c(O)ccc(Cl)c3Cl)C[C@H]2C1 (stereo partly drawn) [Compound 229, (2R,8aS)-2-(2,3-dichloro-6-hydroxyphenyl)-5-oxo-hexahydro-1H-indolizine-7-carboxylic acid]",
> 6.00,"O=C1CC[C@@H]2C[C@H](c3c(O)ccc(Cl)c3Cl)CN12 [Compound 244, (6R,7aR)-6-(2,3-dichloro-6-hydroxyphenyl)-hexahydropyrrolizin-3-one]",
> 6.00,"O=C1C(CO)C[C@@H]2C[C@H](c3c(O)ccc(Cl)c3Cl)CN12 (stereo partly drawn) [Compound 247, (6R,7aS)-6-(2,3-dichloro-6-hydroxyphenyl)-2-(hydroxymethyl)-hexahydropyrrolizin-3-one]",
> 6.00,"O=C1OC[C@@H]2C[C@H](c3c(O)ccc(Cl)c3Cl)CCN12 [Compound 252, (7R,8aS)-7-(2,3-dichloro-6-hydroxyphenyl)-hexahydro-[1,3]oxazolo[3,4-a]pyridin-3-one]",
> 5.00,"O=C1N(CCO)C[C@@H]2C[C@H](c3c(O)ccc(Cl)c3Cl)CN12 [Compound 290, (6R,7aS)-6-(2,3-dichloro-6-hydroxyphenyl)-2-(2-hydroxyethyl)hexahydro-3H-pyrrolo[1,2-c]imidazol-3-one]",
> 5.00,"CN1C[C@@H]2C[C@H](c3c(O)ccc(Cl)c3Cl)CN2C1=O [Compound 291, (6R,7aS)-6-(2,3-dichloro-6-hydroxyphenyl)-2-methyl-tetrahydro-1H-pyrrolo[1,2-c]imidazol-3-one]",
